One test deals with TNK2 D163E cells. In kind it is cell-based, murine. The note with it: for IC50: Ba/F3 TNK2 D163E, no IL3, 72 hours, MTS.
For another test, the system named is TNK2 R806Q cells. In kind it is cell-based, murine. The note with it: for IC50: Ba/F3 TNK2 R806Q, no IL3, 72 hours, MTS.
For a further test, the system named is parental Ba/F3 cells. The experiment in a line: Inhibitor study, MTS viability of control Ba/F3 cells grown in IL3. The test is classed as cell-based, murine. Particulars: IL3 containing medium; highest tested concentration 1,000 nM.
In test [1] the test system is TNK2 D163E T205I and T205M Ba/F3 lines. The test is classed as cell-based, murine. The note with it: T205I and T205M added to D163E, IL-3 independent Ba/F3 lines.
For test [2], the system named is TNK2 S808* and TNK2 Q831fs. The experiment in a line: Phosphorylation of TNK2 truncation mutants in transfected 293T17 cells. In kind it is cell-based, human. The note with it: 1 μM dasatinib, 2.5 μM XMD8-87 or 2.5 μM XMD16-5, 3.5 hours.

Entries after “also recorded” stand apart in the source; their conditions may differ. Where two headings read alike, the source gives them in different places.

With `Cc1nc(Nc2ncc(C(=O)Nc3c(C)cccc3Cl)s2)cc(N2CCN(CCO)CC2)n1` [dasatinib, N-(2-chloro-6-methyl-phenyl)-2-(6-(4-(2-hydroxyethyl)-piperazin-1-yl)-2-methylpyrimidin-4-ylamino)thiazole-5-carboxamide], the “sensitivity of post-transformation line” value in the test on TNK2 D163E cells (Ba/F3 TNK2 D163E post-interleukin-3-independent transformation) and in the test with TNK2 R806Q cells (Ba/F3 TNK2 R806Q post-interleukin-3-independent transformation) was “sensitive to dasatinib at low nanomolar concentrations” in each case. The half-maximal inhibitory concentration (IC50) in the test with TNK2 D163E cells was less than 0.01 µM; in the test with TNK2 D163E cells (listed as Dasatinib), roughly 0.0001 µM; with TNK2 R806Q cells, less than 0.01 µM; in the test with TNK2 R806Q cells (listed as Dasatinib), 0.0013 µM. Moreover, in the test with parental Ba/F3 cells, the “sensitivity of control or pre-transformation cell lines grown in IL3” value is “did not show sensitivity; also recorded: completely insensitive”. Besides, the “sensitivity of D163E cell lines carrying gatekeeper mutations” value in test [1] is given as “resistance”. Also, the “inhibition of phosphorylation of TNK2 truncation mutants” value (“inhibition” for short) in test [2] is “vast majority of phosphorylation was blocked; also recorded: inhibited”.

Take `CN1c2ccccc2C(=O)Nc2cnc(Nc3ccc(N4CCC(O)CC4)cc3)nc21` [XMD16-5]: the IC50 amounted to 0.016 µM in the test on TNK2 D163E cells and 0.077 µM in the test on TNK2 R806Q cells. Further, the “sensitivity of D163E cell lines carrying gatekeeper mutations” value in test [1] was “resistance”. Besides, the “inhibition” value in test [2] is on record as “vast majority of phosphorylation was blocked; also recorded: inhibited; also recorded: potently inhibit”.

Turning to `COc1cc(N2CCN(C)CC2)ccc1Nc1ncc2c(n1)N(C)c1ccccc1C(=O)N2` [XMD8-87], the results for the IC50 with TNK2 D163E cells and in the test with TNK2 R806Q cells were 0.038 µM and 0.113 µM, respectively. Besides, the “sensitivity of D163E cell lines carrying gatekeeper mutations” value in test [1] is recorded as “resistance”. In addition, the “inhibition” value in test [2] is “vast majority of phosphorylation was blocked; also recorded: inhibited; also recorded: potently inhibit”.

As to `c1ccc(-c2oc3ncnc(NC[C@@H]4CCCO4)c3c2-c2ccccc2)cc1` [AIM-100], the IC50 stood at 0.091 µM in the test on TNK2 D163E cells and 0.32 µM in the test with TNK2 R806Q cells. In addition, the “sensitivity of D163E cell lines carrying gatekeeper mutations” value in test [1] was “resistance”.

For the origin of these results see article PMC4703549 (Cancer research, 2015).
